Assay results: US5449676A, “Pyridazines” (priority 1991, dated 1995)
Read-outs that look alike come from different tables or passages of the source.

Legend:
tracheal rings = assay: bronchospasmolytic effect on the chain of tracheal rings from guinea pigs in vitro; type: cell-based; details: for -lg[EC50 ] / EC50: negative logarithm of EC50 mol/l, 50% of maximum achievable relaxation; for [EC50 ] theophylline/[EC50 ] substance: ratio of EC50 values, theophylline vs substance; for EC50: Cavia porcellus, read-out: -lg[EC50 ] (converted)
Protocol: The bronchospasmolytic effect of the compounds on the chain of tracheal rings from guinea pigs was tested in vitro as follows:
Thus, a complete dose-effect plot for the test substance is obtained over a period of 20 to 30 minutes. The particular relaxation is expressed as a percentage fraction of the maximum relaxation achievable by administration of (-)isoprenaline (10^-6 mol/l).

[1] = system: acetylcholine-induced bronchospasm; assay: protective effect against acetylcholine-induced bronchospasm in conscious guinea pigs; type: in vivo; details: oral, 30 minutes after administration, percentage of protected animals; for responders at 10 µmol/kg: 10 μmol/kg
Protocol: In addition, the bronchospasmolytic effect was tested on the "protective effect against acetylcholine-induced bronchospasm in conscious guinea pigs" model:
Guinea pigs (250-350 g) are exposed in a closed Plexiglass cylinder (volume […] ) to an acetylcholine mist (0.06% in 0.9% sodium chloride solution; Heyer Use 77 ultrasonic atomizer) before administration of the substance and twice at an interval of 20 minutes after administration of the substance. The time from the start of atomization to the onset of marked breathing difficulties (in some cases hypoxic convulsion in the lateral position) is measured and called the latency time. An increase in the latency time after administration of the substance to at least three times the average latency time before administration of the substance is regarded as a protective effect, and the number of protected animals in the group is determined. […]
[…] After 30 minutes, the animals are again exposed to the acetylcholine mist and the latency times are measured. An increase in the latency time to at least three times the length is regarded as a protective effect.

[2] = system: histamine-induced bronchospasm; assay: histamine-induced bronchospasm in anesthetized guinea pigs; type: in vivo; details: for inhibition in vivo at 20 µmol/kg / inhibition in vivo at 60 µmol/kg / inhibition in vivo at 100 µmol/kg / inhibition in vivo at 5 µmol/kg / inhibition in vivo at 10 µmol/kg: Cavia porcellus; for inhibition in vivo at 5 µmol/kg: 5 μmol/kg; for inhibition in vivo at 10 µmol/kg: 10 μmol/kg
Protocol: One histamine spasm before administration of the substance was compared with several histamine spasms after administration of the substance. The test substances were administered intravenously (i.v.) and/or intrajejunally (i.j.).

PDE III = target: T1, PDE III (Homo sapiens, UniProt Q14432); assay: inhibition of PDE III isolated from human platelets; type: biochemical; details: negative logarithm of IC50, cAMP 0.5 μmol/l; for IC50: read-out: PDE III hum. platelets -lg[IC50 ] (converted)
T1 construct: PDE III isolated from human platelets; from tissue; host or cells: human platelets
Text: (§1) The specific inhibition of phosphodiesterase IV (PDE IV=high-affinity cAMP-PDE which cannot be inhibited by cGMP, rolipram-sensitive) is regarded as particularly indicative of an expected bronchospasmolytic and/or antiinflammatory effect. The specificity of the inhibition is moreover described by the ratio [IC50 ]PDE-III /[IC50 ]PDE-IV (PDE III=high-affinity cAMP-PDE which can be inhibited by cGMP) [H. Hidaka et al., Adv. Cycl. Nucl. Res. 13, 145 (1984); TiPS 5, 237 (1984); R. Weishaar et al., J. Med. Chem. 28, (1985); S. A. Harrison et al., Molec. Pharmac. 29, 506 (1986); J. Klein-Tebbe et al., Allergologie 12, 12 (1989); C. Schudt et al., Allergologie 12, 12, (1989); C. Schudt et al., Agents and Action 1991 in press; C. D. Nicholson et al., TiPS 12, (1), 19 (1991)].
(§2) For this reason, the PDE inhibition by the compounds according to the invention was determined on a PDE III isolated from human platelets and on PDE IV isolated from human polymorphonuclear neutrophilic cells (PMNs) and from the dog trachea. Phosphodiesterases III and IV are isolated by chromatography as described by Polson et al., Biochem. Pharmacol. 31, 3403-3406 (1982).
(§3) The substances are dissolved and diluted further in DMSO. 2.1 μl samples from a series of solutions diluted up to 100 fold are mixed with 212 μl of reaction mixture. The reaction mixture contains Hepes (100 mmol/l), DTE (5 mmol/l), MgCl2 (5 mmol/l), CaCl2 (10 μmol/l), BSA fraction V 0.5 mg, ml, cAMP 0.5 μmol/l, 2,8-^3 H-cAMP 250,000 cpm/ml (0.3 μCi/ml, S.A. […]), SV (snake venom) 25 μg/212 μl of test mixture.

PDE IV [3] = assay: inhibition of PDE IV isolated from dog trachea; type: biochemical; details: for PDE IV dog trachea -lg[IC50 ]: negative logarithm of IC50, cAMP 0.5 μmol/l; for [IC50 ] PDE III/[IC50 ] PDE IV dog tr.: selectivity ratio, PDE III hum. platelets vs PDE IV dog trachea
Text: as §1, §2, §3

PDE IV [4] = assay: inhibition of PDE IV isolated from human polymorphonuclear neutrophilic cells (PMNs); type: biochemical; details: for PDE IV hum. PMNs -lg[IC50 ]: negative logarithm of IC50, cAMP 0.5 μmol/l; for [IC50 ] PDE III/[IC50 ] PDE IV PMNs: selectivity ratio, PDE III hum. platelets vs PDE IV hum. PMNs
Text: as §1, §2, §3

[5] = Cavia porcellus, 0.5 h, 100 μmol/kg
[6] = 1 h, read-out: % inhibition (0-1 h) of the histamine-induced decrease in Vmax
[7] = 1 h, read-out: % inhibition after 1 h of the histamine-induced decrease in Vmax
[8] = iv, 1 h, read-out: % inhibition (0-1 h) of the histamine-induced decrease in Vmax
[9] = iv, 1 h, read-out: % inhibition after 1 h of the histamine-induced decrease in Vmax
[10] = iv, after 1 h, read-out: % inhibition after 1 h of the histamine-induced decrease in Vmax
[11] = iv, average 0-1 h after administration, read-out: % inhibition (0-1 h) of the histamine-induced decrease in Vmax
[12] = iv, 20 μmol/kg, after 1 h, read-out: % inhibition after 1 h of the histamine-induced decrease in Vmax
[13] = iv, 20 μmol/kg, average 0-1 h after administration, read-out: % inhibition (0-1 h) of the histamine-induced decrease in Vmax

T1 sequence (Q14432 whole entry): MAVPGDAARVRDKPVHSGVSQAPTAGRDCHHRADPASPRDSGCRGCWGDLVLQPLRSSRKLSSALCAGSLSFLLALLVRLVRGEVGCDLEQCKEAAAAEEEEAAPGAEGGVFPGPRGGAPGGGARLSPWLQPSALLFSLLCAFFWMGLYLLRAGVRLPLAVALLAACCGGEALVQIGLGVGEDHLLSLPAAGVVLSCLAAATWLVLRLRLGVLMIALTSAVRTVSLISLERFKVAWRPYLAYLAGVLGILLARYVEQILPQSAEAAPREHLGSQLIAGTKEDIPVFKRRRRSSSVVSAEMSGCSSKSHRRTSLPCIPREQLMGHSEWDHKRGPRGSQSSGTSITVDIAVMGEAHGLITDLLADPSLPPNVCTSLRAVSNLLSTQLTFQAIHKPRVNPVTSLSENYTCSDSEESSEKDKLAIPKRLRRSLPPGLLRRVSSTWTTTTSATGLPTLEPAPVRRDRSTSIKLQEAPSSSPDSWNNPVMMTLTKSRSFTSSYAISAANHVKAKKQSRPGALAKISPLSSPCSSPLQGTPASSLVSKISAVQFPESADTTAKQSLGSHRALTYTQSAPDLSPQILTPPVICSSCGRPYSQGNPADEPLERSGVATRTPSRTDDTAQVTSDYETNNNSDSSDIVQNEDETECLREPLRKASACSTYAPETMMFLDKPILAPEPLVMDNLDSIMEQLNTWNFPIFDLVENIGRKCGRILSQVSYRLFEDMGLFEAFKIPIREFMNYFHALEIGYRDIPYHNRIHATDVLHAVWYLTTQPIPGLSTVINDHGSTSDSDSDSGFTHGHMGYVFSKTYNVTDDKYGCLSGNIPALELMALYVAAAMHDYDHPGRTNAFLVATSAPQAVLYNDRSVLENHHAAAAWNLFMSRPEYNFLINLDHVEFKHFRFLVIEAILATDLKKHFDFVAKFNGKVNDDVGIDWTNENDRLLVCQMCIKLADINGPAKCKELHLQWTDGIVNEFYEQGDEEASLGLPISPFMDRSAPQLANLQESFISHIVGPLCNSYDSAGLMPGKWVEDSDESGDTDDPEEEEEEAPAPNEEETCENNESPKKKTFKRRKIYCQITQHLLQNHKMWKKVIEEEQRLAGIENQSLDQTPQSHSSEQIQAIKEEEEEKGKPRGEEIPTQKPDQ

| Compound | [EC50 ] theophylline/[EC50 ] substance (tracheal rings) | responders at 100 µmol/kg [1, 5] | IC50 (PDE III) | PDE IV hum. PMNs -lg[IC50 ] (PDE IV [4]) | EC50 (tracheal rings) | [IC50 ] PDE III/[IC50 ] PDE IV PMNs (PDE IV [4]) | other results |
| --- | --- | --- | --- | --- | --- | --- | --- |
| 3-amino-6-(4-difluoromethoxy-3-ethoxyphenyl)pyridazine 2-oxide [Serial No. 19] | 14.5 | – | – | – | – | – | -lg[EC50 ] (tracheal rings): 5.03; % protective effect ([1]; 100 μmol/kg): 35% |
| 3-amino-6-(4-difluoromethoxy-3-methoxyphenyl)pyridazine 2-oxide [Serial No. 20] | 33.2 | – | – | – | – | – | -lg[EC50 ] (tracheal rings): 5.39; % protective effect ([1]; 100 μmol/kg): 50% |
| 3-amino-6-(4-difluoromethoxy-3-methoxyphenyl)pyridazine [Serial No. 11] | 20.4 | – | – | – | – | – | -lg[EC50 ] (tracheal rings): 5.18; % inhibition after 1 h of the histamine-induced decrease in Vmax ([2]; i.v., 20 μmol/kg, after 1 h): is; % inhibition (0-1 h) of the histamine-induced decrease in Vmax ([2]; i.v., 20 μmol/kg, average 0-1 h after administration): 22%; % protective effect ([1]; 30 μmol/kg): 35%; % protective effect ([1]; 100 μmol/kg, listed as 4): 35%; % protective effect ([1]; 100 μmol/kg, listed as 6): 85% |
| COc1ccc(-c2ccc(N)nn2)cc1OC(C)C [Serial No. 3, 3-amino-6-[4-methoxy-3-(1-methylethoxy)phenyl]pyridazine] | – | – | – | – | – | – | PDE III hum. platelets -lg[IC50 ] (PDE III): 3.66; PDE IV dog trachea -lg[IC50 ] (PDE IV [3]): 5.30; [IC50 ] PDE III/[IC50 ] PDE IV dog tr. (PDE IV [3]): 43.7 |
| COc1cc(-c2ccc(N)nn2)ccc1OC(C)C [Serial No. 5, 3-amino-6-[3-methoxy-4-(1-methylethoxy)phenyl]pyridazine] | – | 45% | – | – | – | – | – |
| COc1ccc(-c2ccc(N)nn2)cc1OC1CCCCC1 [Serial No. 7, 3-amino-6-(3-cyclohexyloxy-4-methoxyphenyl)pyridazine] | – | – | 60.3 µM | – | – | – | PDE IV dog trachea -lg[IC50 ] (PDE IV [3]): 5.17; [IC50 ] PDE III/[IC50 ] PDE IV dog tr. (PDE IV [3]): 8.9 |
| Cn1c(=O)c2[nH]cnc2n(C)c1=O [Theophylline, reference compound] | – | 20% | – | 3.77 | – | – | inhibition in vivo at 20 µmol/kg [2, 6]: 11%; inhibition in vivo at 60 µmol/kg [2, 6]: 37%; inhibition in vivo at 100 µmol/kg [2, 6]: 45%; inhibition in vivo at 20 µmol/kg [2, 7]: 8%; inhibition in vivo at 60 µmol/kg [2, 7]: 42%; inhibition in vivo at 100 µmol/kg [2, 7]: 44%; inhibition in vivo at 20 µmol/kg [2, 8]: 13%; inhibition in vivo at 60 µmol/kg [2, 8]: 25%; inhibition in vivo at 100 µmol/kg [2, 8]: 34%; inhibition in vivo at 20 µmol/kg [2, 9]: 5%; inhibition in vivo at 60 µmol/kg [2, 9]: 12%; inhibition in vivo at 100 µmol/kg [2, 9]: 22%; responders at 200 µmol/kg ([1]; Cavia porcellus, 0.5 h, 200 μmol/kg): 40%; responders at 400 µmol/kg ([1]; Cavia porcellus, 0.5 h, 400 μmol/kg): 70% |
| Nc1ccc(-c2ccc(OC(F)F)c(OC3CCCC3)c2)nn1 [compound 14] | 20.4 | – | 53.7 µM | 7.15 | 6.61 µM | 1466 | – |
| CC(C)Oc1cc(-c2ccc(N)nn2)ccc1OC(F)F [compound 15] | – | – | 107 µM | 6.78 | – | 794 | – |
| Nc1ccc(-c2ccc(OC(F)F)c(OCC(F)(F)F)c2)nn1 [compound 16] | – | – | 331 µM | 6.88 | – | 2515 | – |
| CC(C)COc1cc(-c2ccc(N)nn2)ccc1OC(F)F [compound 17] | – | – | 151 µM | 6,96 | – | 1466 | – |
| Nc1ccc(-c2ccc(OC(F)F)c(OCC3CC3)c2)nn1 [compound 18] | – | 75% | 145 µM | 7.47 | – | 4265 | inhibition in vivo at 5 µmol/kg [2, 10]: 49%; inhibition in vivo at 5 µmol/kg [2, 11]: 40%; inhibition in vivo at 10 µmol/kg [2, 10]: 38%; inhibition in vivo at 10 µmol/kg [2, 11]: 33%; inhibition in vivo at 20 µmol/kg [2, 12]: 35%; inhibition in vivo at 20 µmol/kg [2, 13]: 31%; inhibition in vivo at 10 µmol/kg ([2]; i.j. admin., after 1 h, read-out: % inhibition after 1 h of the histamine-induced decrease in Vmax): 43%; inhibition in vivo at 10 µmol/kg ([2]; i.j. admin., average 0-1 h after administration, read-out: % inhibition (0-1 h) of the histamine-induced decrease in Vmax): 32%; responders at 10 µmol/kg ([1]; Cavia porcellus, 0.5 h): 75% |
| CCOc1ccc(-c2ccc(N)[n+]([O-])n2)cc1OC(F)F [compound 21] | 240 | – | 44.7 µM | 5.19 | 0.562 µM | 6.9 | – |
| CC(C)Oc1cc(-c2ccc(N)[n+]([O-])n2)ccc1OC(F)F [compound 22] | 44.7 | 60% | 12 µM | 6.26 | 3.02 µM | 21.9 | – |
| CC(C)COc1cc(-c2ccc(N)[n+]([O-])n2)ccc1OC(F)F [compound 23] | 44.7 | – | 126 µM | 7.03 | 3.02 µM | 1350 | – |
| Nc1ccc(-c2ccc(OC(F)F)c(OC3CCCC3)c2)n[n+]1[O-] [compound 24] | 65.5 | 60% | 47.9 µM | 7.24 | 2.04 µM | 832 | – |
| Nc1ccc(-c2ccc(OC(F)F)c(OCC(F)(F)F)c2)n[n+]1[O-] [compound 25] | 380 | 70% | 70.8 µM | 6.42 | 0.355 µM | 186 | inhibition in vivo at 20 µmol/kg [2, 12]: 33%; inhibition in vivo at 20 µmol/kg [2, 13]: 34%; responders at 10 µmol/kg ([1]; Cavia porcellus, 0.5 h): 45% |
| Nc1ccc(-c2ccc(OC(F)F)c(OCC3CC3)c2)n[n+]1[O-] [compound 26] | 135 | – | 18.2 µM | 7.48 | 1 µM | 550 | inhibition in vivo at 20 µmol/kg [2, 12]: 12%; inhibition in vivo at 20 µmol/kg [2, 13]: 15%; responders at 10 µmol/kg ([1]; Cavia porcellus, 0.5 h): 70% |
